Results: patent US20040235792A1, “Serine protease inhibitors compromising a hydrogen-bond acceptor” (priority 2001, published 2004)
Where a SMILES comes first, the peptide text is derived from it. [ ]: non-standard residue; d: D form. dPip = O=C(O)[C@H]1CCCCN1

Assays:
thrombin = thrombin (Homo sapiens, UniProt P00734); conditions: cited from earlier work; for KassThr/KassThy: selectivity ratio
FIXa = target: T1, FIXa (Homo sapiens, UniProt P00740); experiment: Score assay, FIXa (chromogenic substrate Pefachrome IXa); type: biochemical; design: key: fold increase in inhibitor conc / inhibitor conc used (mM); conditions: Score = fold increase in inhibitor concentration / concentration of inhibitor used (in mM), 37° C., pH 7.4
T1 construct: FIXa was obtained from Haematologics; purchased Haematologics
Protocol: (§1) Score gives a facile measure of the effectiveness of an inhibitor requiring only one or two data points, rather than the twelve or more data points required to calculate an IC50.
(§2) The principle behind calculating the score is that, although the absolute values obtained from inhibitors of the same type may be different, the shape and range of the IC50 curves are quite similar.
(§3) Molecular Devices Corp. Thermomax plate reader.
Pefachrome IXa (Kordia, for FIXa)
(§4) Buffer for FIXa assay: 50 mM Tris; 100 mM sodium chloride; 0.5% PEG 6000, pH 7.4. The aqueous buffer was freshly mixed each day with ethylene glycol (65%:35% respectively) Human α-thrombin was obtained from J. Freysinnet (Strasbourg).
FIXa was obtained from Haematologics.
FIXa (50 μl of a stock at 0.01 mg/ml) is added.
(§5) The data from IC50 curves for 13 compounds were used to construct an average IC50 curve.
(§6) The average values for the fold increase at each 10% step are shown below:
(§7) Measurement of single concentrations of inhibitor on a plate reader (using MDC ‘Softmax’ software) gave a value from 9 to 0 when compared to a control without inhibitor which corresponds to the % inhibition a shown in Table 1. Provided that the plate reader number was >2 but <8 (linear part of the graph) the score could then be calculated as follows.
(§8) Score=fold increase in inhibitor concentration (see table 1)/concentration of inhibitor used (in mM)

Human α-thrombin = target: T2, Human α-thrombin (Homo sapiens, UniProt P00734); experiment: Score assay, Thr (chromogenic substrate S-2238); type: biochemical; conditions: Score = fold increase in inhibitor concentration / concentration of inhibitor used (in mM), 37° C., pH 7.4
T2 construct: Human α-thrombin was obtained from J. Freysinnet (Strasbourg); purchased J. Freysinnet (Strasbourg)
Text: as §1, §2, §3
S-2238 (H-D-Phe-Pip-Arg-pNA, for Thr) was obtained from Quadratech.
(§9) Buffer for Thr, Try, Pla, UK or Xa assay: 0.1M sodium phosphate; 0.2M sodium chloride; 0.5% PEG6000; 0.02% sodium azide, pH 7.4.
as §4
Inhibitor (100 μl of dilution in buffer of 1/20 or higher as appropriate from stock in DMSO) is added to substrate (50 μl of a dilution of 1/100 of 2.4 mg/ml stock) for 2 minutes at 37° C. Thr (50 μl of a dilution of {fraction (1/10,000)} of stock at 1 mg/ml) is added.
as §5, §6, §7, §8

Try (trypsin) = Try (trypsin) (Homo sapiens, UniProt P07477); experiment: Score assay, Try (chromogenic substrate S-2288); type: biochemical; design: key: score = fold increase in inhibitor conc / inhibitor conc used (mM); conditions: Table 3, substrate 25 μM
Text: as §1, §2, §3
S-2288 (H-D-Ileu-Pro-Arg-pNa for Try) was obtained from Quadratech.
as §9
(§10) Final Substrates Concentrations were 25 μM, 113 μM, 22 μM and 125 μM for Try, Pla, Xa and UK Respectively.
as §5, §6, §7, §8

Xa (factor X activated) = Xa (factor X activated) (Homo sapiens, UniProt P00742); experiment: Score assay, Xa (chromogenic substrate S-2765); type: biochemical; design: key: score = fold increase in inhibitor conc / inhibitor conc used (mM); conditions: Table 3, substrate 22 μM
Text: as §1, §2, §3
S-2765 (N-α-Z-D-ArgGly-Arg-pNa for Xa) was obtained from Quadratech.
as §9, §10, §5, §6, §7, §8

Pla (plasmin) = Pla (plasmin) (Homo sapiens, UniProt P00747); experiment: Score assay, Pla (chromogenic substrate S-2251); type: biochemical; conditions: Table 3, substrate 113 μM
Text: as §1, §2, §3
S-2251 (H-D-Val-Leu-Lys-pNa for Pla) was obtained from Quadratech.
as §9, §10, §5, §6, §7, §8

UK (urokinase) = UK (urokinase) (Homo sapiens, UniProt P00749); experiment: Score assay, UK (chromogenic substrate S-2444); type: biochemical; design: key: score = fold increase in inhibitor conc / inhibitor conc used (mM); conditions: Table 3, substrate 125 μM
Text: as §1, §2, §3
S-2444 (pyro-Glu-Gly-Arg-pNa for UK) was obtained from Quadratech.
as §9, §10, §5, §6, §7, §8

protein Ca = protein Ca (Homo sapiens, UniProt P04070); conditions: read-out: IC50 (protein Ca system); cited from earlier work
[1] = cited from earlier work
[2] = Table 1 comparators, single concentration, higher = more effective
[3] = Table 1 comparators, single concentration

T1 sequence (P00740 227-461 limits assumed): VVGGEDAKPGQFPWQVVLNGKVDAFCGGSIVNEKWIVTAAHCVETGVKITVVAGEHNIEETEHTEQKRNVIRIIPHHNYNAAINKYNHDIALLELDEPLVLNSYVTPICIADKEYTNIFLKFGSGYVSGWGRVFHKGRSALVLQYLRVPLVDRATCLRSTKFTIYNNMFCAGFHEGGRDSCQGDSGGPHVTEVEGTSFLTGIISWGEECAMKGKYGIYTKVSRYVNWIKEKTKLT
T1 sequence (P00740 47-191 partner limits assumed): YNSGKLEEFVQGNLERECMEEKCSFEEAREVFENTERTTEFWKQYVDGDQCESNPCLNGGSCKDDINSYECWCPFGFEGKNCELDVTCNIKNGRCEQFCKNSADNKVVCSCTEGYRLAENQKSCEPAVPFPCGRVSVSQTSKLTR
Pla (plasmin), sequence (P00747 581-810 limits assumed, species assumed): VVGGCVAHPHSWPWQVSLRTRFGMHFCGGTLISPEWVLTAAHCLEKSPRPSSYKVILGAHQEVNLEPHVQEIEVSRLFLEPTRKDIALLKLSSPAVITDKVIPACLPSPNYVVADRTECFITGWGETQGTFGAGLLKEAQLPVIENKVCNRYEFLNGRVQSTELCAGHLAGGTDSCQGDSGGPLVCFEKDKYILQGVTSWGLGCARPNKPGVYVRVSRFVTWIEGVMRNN
Pla (plasmin), sequence (P00747 97-580 partner limits assumed, species assumed): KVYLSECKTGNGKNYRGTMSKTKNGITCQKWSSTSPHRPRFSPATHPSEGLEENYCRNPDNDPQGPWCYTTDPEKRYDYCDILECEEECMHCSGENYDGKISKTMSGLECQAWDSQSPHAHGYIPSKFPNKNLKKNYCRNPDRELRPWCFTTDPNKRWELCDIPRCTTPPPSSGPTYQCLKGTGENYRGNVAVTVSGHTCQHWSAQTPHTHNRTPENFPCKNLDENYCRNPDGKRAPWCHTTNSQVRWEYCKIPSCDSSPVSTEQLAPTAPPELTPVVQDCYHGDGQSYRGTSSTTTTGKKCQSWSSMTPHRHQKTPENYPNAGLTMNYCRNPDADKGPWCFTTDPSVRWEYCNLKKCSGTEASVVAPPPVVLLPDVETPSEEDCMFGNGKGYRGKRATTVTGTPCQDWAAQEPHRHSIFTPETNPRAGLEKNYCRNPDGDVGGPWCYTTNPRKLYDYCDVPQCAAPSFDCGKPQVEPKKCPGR
Xa (factor X activated), sequence (P00742 235-488 limits assumed): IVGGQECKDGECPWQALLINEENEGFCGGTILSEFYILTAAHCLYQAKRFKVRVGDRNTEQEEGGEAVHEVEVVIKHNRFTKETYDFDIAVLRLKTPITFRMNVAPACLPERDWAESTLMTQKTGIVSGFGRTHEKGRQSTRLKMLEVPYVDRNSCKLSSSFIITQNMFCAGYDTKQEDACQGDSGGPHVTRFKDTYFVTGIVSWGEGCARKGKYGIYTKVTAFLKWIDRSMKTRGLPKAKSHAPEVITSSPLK
Xa (factor X activated), sequence (P00742 41-179 partner limits assumed): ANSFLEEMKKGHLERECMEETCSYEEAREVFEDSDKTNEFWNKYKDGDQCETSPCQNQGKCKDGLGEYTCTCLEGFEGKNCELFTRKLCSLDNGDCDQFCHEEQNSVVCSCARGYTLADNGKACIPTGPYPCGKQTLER
protein Ca, sequence (P04070 212-461 limits assumed): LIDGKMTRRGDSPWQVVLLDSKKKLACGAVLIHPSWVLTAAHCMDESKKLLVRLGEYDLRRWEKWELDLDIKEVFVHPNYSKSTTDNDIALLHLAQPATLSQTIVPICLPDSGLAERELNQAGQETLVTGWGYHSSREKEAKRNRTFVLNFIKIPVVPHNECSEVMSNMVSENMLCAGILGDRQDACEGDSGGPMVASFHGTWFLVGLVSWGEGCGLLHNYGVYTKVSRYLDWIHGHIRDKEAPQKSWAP
protein Ca, sequence (P04070 43-197 partner limits assumed): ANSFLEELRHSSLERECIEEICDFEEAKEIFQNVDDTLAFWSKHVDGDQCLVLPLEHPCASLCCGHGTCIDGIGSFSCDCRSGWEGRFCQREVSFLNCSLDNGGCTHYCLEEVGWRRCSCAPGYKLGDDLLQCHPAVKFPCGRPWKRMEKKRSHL

FIXa score (FIXa; Table 3) | Thr Score (Human α-thrombin; Table 3) | Try (score) (Try (trypsin)) | Xa (score) (Xa (factor X activated)) | Pla (score) (Pla (plasmin)) | UK (score) (UK (urokinase)) | Compound | also measured
59.6 | 1215 | 640 | 1862 | 640 | 880 | N=C(N)SCc1cc(CSC(=N)N)cc(B(O)O)c1 [compound 968] | 
46 | 106 | 37 | 51 | 27 | 70 | CC1(C)OB(c2cccc(CNC(=N)N)c2)OC1(C)C [compound 1006] | 
746 | 1410 |  |  |  |  | N=C(N)SCc1cc(B(O)O)ccc1Oc1ccc(C(=O)c2ccccc2)cc1 [compound 1072] | 
97 | 666 |  |  |  |  | COc1cccc(Oc2ccc(B3OC(C)(C)C(C)(C)O3)cc2CSC(=N)N)c1 [compound 1058] | 
291 | 2768 |  |  |  |  | CC1(C)OB(c2ccc(Oc3ccccc3)c(CSC(=N)N)c2)OC1(C)C [compound 1055] | 
205 | 1645 | 3 | 905 | 312 | 785 | Cc1cc(CSC(=N)N)cc(B(O)O)c1 [compound 967] | 
306 | 333 | 583 | 889 | 583 | 583 | N=C(N)SCc1cc(B(O)O)ccc1Oc1ccccc1 [compound 977] | 
346 | 2174 |  |  |  |  | N=C(N)SCc1cc(B(O)O)ccc1Oc1ccc2c(c1)CCCC2 [compound 1070] | 
64 | 6769 | 324 | 680 | 324 | 934 | CC(SC(=N)N)c1cccc(B2OC(C)(C)C(C)(C)O2)c1 (centres unmarked) [compound 974] | 
285 | 1959 |  |  |  |  | CC(C)Cc1ccc(Oc2ccc(B3OC(C)(C)C(C)(C)O3)cc2CSC(=N)N)cc1 [compound 1059] | 
39.0 | 15(*) |  |  |  |  | CC1(C)OB(c2ccc(N3CCN(c4ccccn4)CC3)c(CSC(=N)N)c2)OC1(C)C [compound 1031] | 
229 | 4156 |  |  |  |  | N#Cc1cccc(Oc2ccc(B(O)O)cc2CSC(=N)N)c1 [compound 1069] | 
32 | 1210 | 167 | 167 | 121 | 1210 | COc1ccc(CSC(=N)N)cc1B1OC(C)(C)C(C)(C)O1 [compound 973] | 
626 | 455 |  |  |  |  | CC1(C)OB(c2ccc(Oc3ccc(Oc4ccccc4)cc3)c(CSC(=N)N)c2)OC1(C)C [compound 1056] | 
80 | 12 |  |  |  |  | CC(C)(C)OC(=O)N=C(N)N(Cc1cccc(B2OC(C)(C)C(C)(C)O2)c1)C(=O)OC(C)(C)C [compound 970] | 
157 | 572 |  |  |  |  | CC1(C)OB(c2ccc(Oc3cccc(Cl)c3)c(CSC(=N)N)c2)OC1(C)C [compound 1057] | 

The remaining lines, values behind:

Compound | FIXa score (FIXa; Table 3) | Thr Score (Human α-thrombin; Table 3) | Try (score) (Try (trypsin)) | Xa (score) (Xa (factor X activated)) | Pla (score) (Pla (plasmin)) | UK (score) (UK (urokinase)) | also measured
N=C(N)NCCC[C@@H](C=O)NC(=O)[C@@H]1CCCN1C(=O)[C@H]1CCCCN1 [D-hPro-Pro-Arg-H] (H-[dPip]-Pro-Arg-aldehyde) |  |  |  |  |  |  | KassThr (thrombin): 2e+06 L/mol
N=C(N)SCc1ccccc1B(O)O [compound 865] | 5.4 | 70 | 7 | 7 | 3 | 26 | 
N=C(N)SCc1ccc(B(O)O)cc1 [compound 866] | 6.4 | 6.4 | 440 | 6 | 32 | 3076 | 
CN=C(N)SCc1cccc(B(O)O)c1 [compound 903] | 19 | 38.7 | 21 | 39 | 21 | 27 | 
Br.N=C(N)SCc1cccc(I)c1 [compound 885] |  |  |  |  |  |  | FIXa score (FIXa; [2]): 0.6; Thr Score (Human α-thrombin; [3]): 10
N=C(N)SCc1cccc(B(O)O)c1 [compound 864] | 209 | 421 | 868 | 868 | 289 | 776 | 
Br.Cc1ccc(I)cc1NC(=N)NC(=N)N [compound 930] |  |  |  |  |  |  | FIXa score (FIXa; [2]): 0.6; Thr Score (Human α-thrombin; [3]): 0
Br.N=C(N)NC(=N)Nc1cc(F)cc(F)c1Br [compound 929] |  |  |  |  |  |  | FIXa score (FIXa; [2]): 1.6; Thr Score (Human α-thrombin; [3]): 0
CC(=O)NC(Cc1ccccc1)C(=O)N1CCCC1C(=O)NC(CCCNC(=N)N)B(O)O [DuP 714, Ac-D-Phe-Pro-boro Arg-OH] |  |  |  |  |  |  | IC50 (protein Ca): 750 nM
CC(C)N(CC(=O)N[C@H](C=O)CCCNC(=N)N)C(=O)[C@H]1CCCCN1 [D-hPro-(Nα-isopropyl)Gly-Arg-H] |  |  |  |  |  |  | KassThr/KassThy (thrombin): 20
Br.CC(C)c1ccc(NC(=N)NC(=N)N)c(Br)c1 [compound 931] |  |  |  |  |  |  | FIXa score (FIXa; [2]): 0.8; Thr Score (Human α-thrombin; [3]): 7.7
N=C(N)SCc1cccc([N+](=O)[O-])c1 [compound 896] | 2 | 295 | 4 | 4 | 2 | 3 | 
Br.COC(=O)c1cccc(CSC(=N)N)c1 [compound 887] |  |  |  |  |  |  | FIXa score (FIXa; [2]): 0.9; Thr Score (Human α-thrombin; [3]): 5.3
CC1(C)OB(c2cccc(CSC(=N)N)c2)OC1(C)C [compound 852] | 76 | 326 | 624 | 624 | 393 | 792 | 
CC1(C)OB(c2ccccc2CSC(=N)N)OC1(C)C [compound 832] | 7 | 70 | 7 | 7 | 1 | 26 | 
c1ccc2ncccc2c1 [quinoline] |  |  |  |  |  |  | pKa [1]: 4.0
CC(=O)NNC(=N)SCc1cccc(B(O)O)c1 [compound 915] | 10.1 | 2.0 | 2 | 1 | 1 | 4 | 
CN[C@H](Cc1ccccc1)C(=O)N1CCC[C@H]1C(=O)N[C@H](C=O)CCCN=C(N)N [LY294468, H-D-MePhe-Pro-Arginal] |  |  |  |  |  |  | KassThr (thrombin): 5.4e+06 L/mol; KassThr/KassThy (thrombin): 5.1
Br.N=C(N)NC(=N)Nc1ccc(I)cc1 [compound 932] |  |  |  |  |  |  | FIXa score (FIXa; [2]): 0.3; Thr Score (Human α-thrombin; [3]): 0
